Test results taken from patent publication USRE37495E1, “Substituted 1-arylpyrazoles” (Bayer Aktiengesellschaft, priority 1993, dated 2002).

Key:
Format in all cases: in vivo
[1] = system: Blattella germanica or Periplaneta americana; assay: Cockroach test; details: after 6 hours, filter paper
Description: Test animals: Blattella germanica or Periplaneta americana
(§1) 35 parts by weight of ethylene glycol monomethyl ether
(§2) 35 parts by weight of nonylphenol polyglycol ether
(§3) To produce a suitable formulation, three parts by weight of active compound are mixed with seven parts of the abovementioned solvent/emulsifier mixture, and the emulsion concentrate thus obtained is diluted with water to the particular desired concentration.
2 ml of this preparation of active compound are pipetted onto filter paper discs (φ9.5 cm) located in Petri dishes of a suitable size. After the filter paper discs have dried, 5 test animals (Blattella germanica or Periplaneta americana) are introduced into the Petri dish, which is covered.
After 6 hours, the effectiveness of the preparation of active compound is determined. The effectiveness is expressed in %. 100% means that all cockroaches have been killed; 0% means that none of the cockroaches have been killed.

[2] = system: Phaedon cochleariae larvae; assay: Critical concentration test/root-systemic action, Phaedon; details: 2.5 ppm active compound in soil, leaves infested after 7 days, evaluated after a further 2 days
Description: Critical Concentration Test/Root-Systemic Action.
Test insect: Phaedon cochleariae larvae
(§4) Solvent: 3 parts by weight of acetone
(§5) Emulsifier: 1 part by weight of alkylaryl polyglycol ether
(§6) To produce a suitable preparation of active compound, 1 part by weight of active compound is mixed with the stated amount of solvent, the stated amount of emulsifier is added and the concentrate is diluted with water to the desired concentration.
(§7) The preparation of active compound is intimately mixed with soil. The concentration of the active compound in the preparation is of practically no importance, only the amount by weight of active compound per unit volume of soil, which is given in ppm (=mg/l), being decisive. The treated soil is transferred into pots and these are planted with cabbage (Brassica oleracea). The active compound can in this way be taken up from the soil by the roots of the plants and be transferred into the leaves.
(§8) After a further 2 days, the evaluation is made by counting or estimating the dead animals. The root-systemic action of the active compound is deduced from the mortality figures. It is 100% if all test animals have been killed and 0% if just as many test insects are still alive as in the case of the untreated control.

Lucilia cuprina larvae = assay: Blowfly larvae test; details: after 24 hours
Description: Test animals: Lucilia cuprina larvae
35 parts by weight of ethylene glcyol monomethyl ether
as §2
To produce a suitable preparation of active compound, three parts by weight of active compound are mixed with seven parts by weight of the abovementioned mixture and the emulsion concentrate thus obtained is diluted with water to the particular desired concentration.
About 20 Lucilia cuprina res. larvae are introduced into a test tube which contains approx. 1 cm^3 of horse meat and 0.5 ml of the preparation of active compound. After 24 hours, the effectiveness of the preparation of active compound is determined. 100% means that all blowfly larvae have been killed; 0% means that none of the blowfly larvae have been killed.

[3] = system: peach aphid (Myzus persicae); assay: Myzus test (leaf dip); details: concentration of active compound 0.1%, after one day, cabbage leaves dipped
Description: (§9) Solvent: 7 parts by weight of dimethylformamide
as §5
(§10) To produce a suitable preparation of active compound, 1 part by weight of active compound is mixed with the stated amount of solvent and the stated amount of emulsifier, and the concentrate is diluted with water to the desired concentration.
Cabbage leaves (Brassica oleracea) which are heavily infested with the peach aphid (Myzus persicae) are treated by being dipped into the preparation of active compound of the desired concentration.
(§11) After the specified period of time, the destruction in % is determined. 100% means that all the aphids have been killed; 0% means that none of the aphids have been killed.

[4] = system: All stages (eggs, larvae, pupae and adults) of Ctenocephalides felis; assay: Flea in-vitro test (all development stages); details: active compound concentration 10% in blood meal
Description: Flea In-Vitro Test (All Development Stages)
Test subject: All stages (eggs, larvae, pupae and adults) of Ctenocephalides felis.
Blood meal is dried overnight in a shallow dish at approximately 70° C. and then screened using a mesh size of 0.63 mm.
1.8 g portions of this prepared blood meal are transferred into plastic Petri dishes of φ9.8 cm.
Using an Eppendorf pipette, 0.2 ml of substance are placed on the 1.8 g of blood meal (dilution factor 1:10).
That is to say, at a use concentration of 1 ppm, the aqueous solution must have a concentration of 10 ppm. The solution is distributed dropwise over the entire surface of-the blood meal.
These prepared dishes are allowed to dry overnight. Using a suitable device, the substance, which is now in the form of dried lumps of blood meal, is crushed and distributed uniformly in the Petri dish by rotating movements. A spatula-full of sieved flea eggs (which are obtained from artificially infected cats) is now added to these prepared test dishes. The dish is sealed with Parafilm and shaken vigorously.
Incubation is effected at 25° C. and the relative atmospheric humidity of 85%. At certain intervals, the dishes are examined for development stages of fleas.
Test criteria: The criteria used for the in-vitro activity of a substance is the inhibition of flea development or a standstill of the development before the adult stage is reached. […]

[5] = system: black bean aphid (Aphis fabae); assay: Aphis test (systemic action); details: concentration of active compound 0.02%, after four days, bean plants watered (systemic)
Description: Aphis Test (Systemic Action)
as §9, §5, §10
Bean plants (Vicia faba) which are heavily infested with the black bean aphid (Aphis fabae) are each watered with 20 ml of preparation of active compound of the desired concentration in such a way that the preparation of active compound penetrates into the soil without wetting the shoot. The active compound is taken up by the roots and passes to the shoot.
as §11

[6] = system: Musca domestica, strain WHO (N); assay: Fly test; details: concentration of active compound 1 ppm, after 6 hours, filter paper
Description: Test animals: Musca domestica, strain WHO (N)
as §1, §2, §3
2 ml of this preparation of active compound are pipetted onto filter paper discs (φ9.5 cm) located in Petri dishes of a suitable size. After the filter paper discs have dried, 25 test animals are introduced into the Petri dish, which is covered.
After 6 hours, the effectiveness of the preparation of active compound is determined. The effectiveness is expressed in %. 100% means that all flies have been killed; 0% means that none of the flies have been killed.

Myzus persicae = assay: Critical concentration test/root-systemic action, Myzus; details: 20 ppm active compound in soil, leaves infested after 7 days, evaluated after a further 2 days
Description: Critical Concentration Test/Root-Systemic Action
Test insect: Myzus persicae
as §4, §5, §6, §7, §8

Compound | destruction ([1]; concentration of active compound >10 ppm) | degree of destruction [2] | destructive activity (Lucilia cuprina larvae; concentration of active compound ≧300 ppm) | destructive activity (Lucilia cuprina larvae; concentration of active compound 1000 ppm) | degree of destruction [3] | destruction [4] | degree of destruction [5] | degree of destruction ([1]; concentration of active compound 10 ppm) | destruction [6] | degree of destruction (Myzus persicae)
Cc1nn(-c2c(Cl)cc(C(F)(F)F)cc2Cl)c(N)c1SC(C)(F)F [Example 1, 5-amino-3-methyl-4-(1,1-difluoroethylthio)-1-(2,6-dichloro-4-trifluoromethylphenyl)-pyrazole] | 100% | 100% |  |  |  |  |  |  |  | 
CC(F)(F)Sc1cnn(-c2c(Cl)cc(C(F)(F)F)cc2NN)c1N [Example 33, 5-amino-4-(1,1-difluoroethylthio)-1-(2-chloro-4-trifluoromethyl-6-hydrazinophenyl)-pyrazole] |  | 100% | 100% |  |  |  |  |  |  | 
N#Cc1nn(-c2c(Cl)cc(C(F)(F)F)cc2Cl)c(N)c1[S+]([O-])C(F)(F)F (stereo not drawn) [prior art] |  | 0% |  | 100% | 0% | 0% | 0% | < 100% | < 100% | 0%
